Data from ChEMBL document CHEMBL1145388, “Pyridazinoquinolinetriones as NMDA glycine-site antagonists with oral antinociceptive activity in a model of neuropathic pain” (J Med Chem, 2007).

Key:
in vivo = settings: Sprague-Dawley, rat, po, 10 mg/kg
physchem = settings: octanol/water, pH 7.4

Row | Structure (SMILES) | bioavailability at 24 h (in vivo) | logD (physchem)
1 | CS(=O)(=O)O.O=c1c2ccc(Cl)cc2[nH]c2c(O)nn(Cc3ccncc3)c(=O)c12 | 5% | < 0.3
2 | CS(=O)(=O)O.O=c1c2ccc(Cl)cc2[nH]c2c(O)nn(Cc3cnccn3)c(=O)c12 | 37% | < 0.5
3 | C#CC(C)n1[nH]c(=O)c2[nH]c3cc(Cl)ccc3c(=O)c2c1=O (stereo not drawn) | – | < 0.5
4 | O=c1c2ccc(Cl)cc2[nH]c2c(O)nn(Cc3cc4ccccc4o3)c(=O)c12 | 25% | 2.1
5 | CC(c1cc2ccccc2o1)n1[nH]c(=O)c2[nH]c3cc(Cl)ccc3c(=O)c2c1=O (stereo not drawn) | – | 2
6 | Cc1ccc(Cn2nc(O)c3[nH]c4cc(Cl)ccc4c(=O)c3c2=O)o1 | – | < 0.5
7 | O=c1c2ccc(Cl)cc2[nH]c2c(O)nn(Cc3ccsc3)c(=O)c12 | 1.2% | 1.2
8 | CC(c1ccsc1)n1[nH]c(=O)c2[nH]c3cc(Cl)ccc3c(=O)c2c1=O (stereo not drawn) | – | 0.9
9 | CC(C#Cc1ccsc1)n1[nH]c(=O)c2[nH]c3cc(Cl)ccc3c(=O)c2c1=O (stereo not drawn) | – | 1.9
10 | CC(C#Cc1cccs1)n1[nH]c(=O)c2[nH]c3cc(Cl)ccc3c(=O)c2c1=O (stereo not drawn) | – | 2.4
11 | CC(C#Cc1ccccc1)n1[nH]c(=O)c2[nH]c3cc(Cl)ccc3c(=O)c2c1=O (stereo not drawn) | – | 1.4
12 | CCC(c1ccncc1)n1[nH]c(=O)c2[nH]c3cc(Cl)ccc3c(=O)c2c1=O (racemic) | – | 0.6
13 | CC(c1ccncc1)n1[nH]c(=O)c2[nH]c3cc(Cl)ccc3c(=O)c2c1=O.CS(=O)(=O)O (racemic) | 30% | < 0.3

Now from value to molecule:

Row | bioavailability at 24 h (in vivo) | logD (physchem) | Structure (SMILES)
14 | – | < 0.5 | O=c1[nH]n(Cc2nccs2)c(=O)c2c(=O)c3ccc(Cl)cc3[nH]c12
15 | 16% | – | O=c1[nH]n(CC#Cc2ccccc2)c(=O)c2c(=O)c3ccc(Cl)cc3[nH]c12
16 | 28% | 1.4 | Cc1ccsc1Cn1[nH]c(=O)c2[nH]c3cc(Cl)ccc3c(=O)c2c1=O
17 | 7% | 1.17 | COC(=O)c1ccc(Cn2nc(O)c3[nH]c4cc(Cl)ccc4c(=O)c3c2=O)cc1
18 | – | 1.3 | COC(=O)c1ccc(C(C)n2[nH]c(=O)c3[nH]c4cc(Cl)ccc4c(=O)c3c2=O)cc1 (stereo not drawn)
19 | – | < 0.5 | O=C(O)c1ccc(Cn2[nH]c(=O)c3[nH]c4cc(Cl)ccc4c(=O)c3c2=O)cc1
20 | – | 1.2 | COCCNC(=O)c1cccc(Cn2[nH]c(=O)c3[nH]c4cc(Cl)ccc4c(=O)c3c2=O)c1
21 | < 1% | 1.1 | CN(C)C(=O)Nc1ccc(Cn2[nH]c(=O)c3[nH]c4cc(Cl)ccc4c(=O)c3c2=O)cc1
22 | – | 1 | Cc1cc(Cn2[nH]c(=O)c3[nH]c4cc(Cl)ccc4c(=O)c3c2=O)oc1C
23 | 12% | – | O=c1[nH]n(Cc2cc3ccccc3s2)c(=O)c2c(=O)c3ccc(Cl)cc3[nH]c12
24 | 40% | < 0.5 | O=c1[nH]n(Cc2ccno2)c(=O)c2c(=O)c3ccc(Cl)cc3[nH]c12
